The test system of data set [1] is LPS-induced TNF-α production. In words: Sub-lethal LPS-induced endotoxemia, serum TNF-α by ELISA. It counts as in vivo, mouse. Conditions: for inhibition of LPS-induced TNF-α production: mouse, reference agents, previously shown by applicant, dose not stated. Here is the method: In this assay, mice are given a non-specific pro-inflammatory challenge using bacterial endotoxin (LPS), and the extent of the systemic inflammatory response (measured by serum levels of the central pro-inflammatory cytokine TNF-α, which is essentially absent from the blood under normal conditions, but is rapidly elevated in response to a wide range of inflammatory stimuli).
Mice (in groups of 6) were pretreated with various doses of each compound, either by the subcutaneous route 30 mins prior to LPS challenge, or by the oral route (via gavage) 60 mins prior to LPS. The mice were then challenged with an intraperitoneal injection of 750 μg of bacterial LPS and sacrificed 3 hours later. Serum was prepared from a terminal bleed by cardiac puncture, and the concentration of TNF-α is determined by ELISA (R&D Systems). In each experiment, a group of 6 mice receive no LPS to act as a negative control, and a second group receive only LPS (with no candidate inhibitor). The level of TNF-α in serum from these animals, which received LPS without drug pre-treatment, is arbitrarily set to 100% (and is typically of the order of 6,000 pg/ml, compared with levels of <10 pg/ml among the negative control group). […]

A short description of data set [2]: Identification of the primary metabolites in pooled 24 h urine (LC-MS-MS full scan). The class given is in vivo. Particulars: rat, single oral dose 3 mg/kg in 1% CMC, qualitative. Here is the method: Urine was collected from rats exposed to a single oral dose (3 mg/kg in 1% CMC) of each compound over a 24 hour period in metabolic cages. The pooled urine sample was then subjected to full scan mass spectral analysis, using the same LC-MS conditions as described in example 1 above. Further MS-MS analysis of the product ions was then performed, and likely fragmentations/re-arrangements assigned from the publicly available Metabolite ID database.
For the major metabolites, the assigned structures were confirmed by synthesis of authentic samples, using methods well known in the art, which were subject to LC-MS-MS analysis under the same conditions as the urine samples.
Note that metabolite ID studies provide only qualitative estimates of the relative amounts of the different metabolites present, and separately validated assays with appropriate internal standards would be required to quantitate each metabolite species.
The detected metabolites, in rank order of concentration detected are shown in FIG. 2 for the five compounds analysed. It is important to note that the methodology used here is not necessarily exhaustive, and further (particularly minor) metabolites may also be present which were below the detection limits for the methods applied here. As a general rule, it can be assumed that metabolites representing 10% or more of the injected dose will be detected (though not necessarily structurally identified) by the methods used here).

Data set [3] is described as follows: Pharmacokinetics following a single dose in rat (LC-MS/MS of blood, one-compartment model). It counts as in vivo. Conditions: rat, averaged across three rats. Here is the method: Compounds were administered as a single dose (either 1 mg/kg bodyweight in 5% DMSO via the intravenous route or 3 mg/kg in 1% carboxymethylcellulose via the oral route) to three adult rats (using different rats for each compound and each route of administration).
Blood was then sampled at various time points (including just prior to dose administration) out to 24 hrs post dose, and the level of the various compounds was assessed using a validated LC-MS/MS assay. Briefly, 3-5 μl of the deproteinised sample was applied to a Waters Atlantis (C18 20×2.1 mm, 3 μm bead size) reverse phase chromatography column equilibrated in 0.1% formic acid in 95:5 water:actetonitrile. Over 3.5 minutes bound material was gradient eluted reaching 0.1% formic acid in 5:95 water:acetonitrile, followed by a step gradient back to 0.1% formic acid in 95:5 water:acetonitrile. The column eluent was then directed to an Applied Biosystems API 4000/3200 QTrap MS/MS mass spectrometer, with a Turbolonspray™ ion source operating in positive ion mode. The interface temperature was set at 650° C., with a 40 ms dwell time for each MRM transition, monitoring the following ions:
The internal standard in each determination was the related compound (S)-3-(2′,2′-dimethylpropanoylamino)-caprolactam, which was spiked into the sample prior to deproteinization. The lower limit of quantitation (LLOQ) for this assay was 2.4 ng/ml for each compound except (I′), where it was 38.1 ng/ml.
Following LC-MS/MS analysis of each collected sample, the pharmacokinetic disposition of the compound was modelled using Kinetica software, a well known software package for such applications.

In data set [4] the test system is S. Typhinurium (TA 102, TA98 and TA 100). Briefly: AMES test, revertant colony formation. It counts as cell-based. Here is the method:
The five compounds were subjected to a standard AMES test to assess likely genotoxicity. Three His-auxotroph strains of S. Typhinurium (TA 102, TA98 and TA 100) were treated with each of the compounds at 5 concentrations (up to 5 mg/ml) in the presence and absence of S9 rat liver microsomal metabolising system. The number of revertant colonies was then determined by plating on trace-His minimal media.

Data set [5] concerns MCP-1 induced THP-1 cell migration. Briefly: ChemoTx transwell migration assay, MCP-1 induced migration of THP-1 cells. The class given is cell-based. Particulars: Homo sapiens. Here is the method:
In principle, this assay consists of two chambers separated by a porous membrane. The chemoattractant is placed in the lower compartment and the cells are placed in the upper compartment. After incubation for a period at 37° C. the cells move towards the chemoattractant, and the number of cells in the lower compartment is proportional to the chemoattractant activity (relative to a series of controls).
The THP-1 cell line (European Cell Culture Collection) were used as the leukocyte cell population.
First, the cell suspension to be placed in the upper compartment is prepared. The THP-1 cells are pelleted by centrifugation (770×g; 4 mins) and washed with Geys Balanced Salt Solution with 1 mg/ml BSA (GBSS+BSA). This wash is then repeated, and the cells repelleted before being resuspended in a small volume of GBSS+BSA for counting, for example using a standard haemocytometer.
The volume of GBSS+BSA is then adjusted depending on the number of cells present so that the cells are at final density of 4.45×10^6 cells per ml of GBSS+BSA. This ensures that there are […] THP-1 cells in each 25 μl of the solution that will be placed in the upper chamber of the plate.
To test a single compound for its ability to inhibit chemokine induced migration, it is necessary to prepare two lots of cells. The suspension of THP-1 cells at 4.45×10^6 cells/ml is divided into two pots. To one pot the inhibitor under test is added at an appropriate final concentration, in an appropriate vehicle (for example at 1 μM in not more than 1% DMSO). To the second pot an equal volume of GBSS+BSA plus vehicle as appropriate (e.g. not more than 1% DMSO) is added to act as a control.
Next, the chemoattractant solution to be placed in the lower compartment is prepared. For example, MCP-1 is diluted in GBSS+BSA to give a final concentration of 25 ng/ml. This is divided into two pots, as for the cell suspension. To one pot, the test compound is added to the same final concentration as was added to the cell suspension, while to the other pot an equal volume of GBSS+BSA plus vehicle as appropriate (e,g. not more than 1% DMSO) is added. Alternatively, other chemokines may be used (SDF-1α at 7.5 ng/ml; RANTES at 50 ng/ml; IL-8 at 10 ng/ml using neutrophils as the target cell population). In each case it is important to determine (in a separate experiment) the concentration of each chemokine which causes maximal stimulation of migration of the chosen target leukocyte population. This maximal concentration must then be used in experiments to test the inhibitory activity of the compounds of the invention.
Once the chemoattractant solutions for the lower wells and cell solutions for the upper chambers have been prepared, the migration chamber should be assembled. Place 29 μl of the appropriate chemoattractant solution into the lower well of the chamber. Assays should be performed with at least triplicate determinations of each condition. Once all the lower chambers have been filled, apply the porous membrane to the chamber in accordance with the manufacturer's instructions. Finally, apply 25 μl of the appropriate cell solution to each upper chamber. A plastic lid is placed over the entire apparatus to prevent evaporation.
The assembled chamber is incubated at 37° C., 5% CO2, for 2 hours. A suspension of cells in GBSS+BSA is also incubated under identical conditions in a tube: these cells will be used to construct a standard curve for determining the number of cells that have migrated to the lower chamber under each condition.
At the end of the incubation, the liquid cell suspension is gently removed from the upper chamber, and 20 μl of ice-cold 20 mM EDTA in PBS is added to the upper chamber, and the apparatus is incubated at 4° C. for 15 mins. This procedure causes any cells adhering to the underside of the membrane to fall into the lower chamber.
After this incubation the filter is carefully flushed with GBSS+BSA to wash off the EDTA, and then the filter is removed. […]

Molecules are shown by their SMILES. Where two headings read alike, the source gives them in different places.

Take `O=C1CCC(N2C(=O)c3ccccc3C2=O)C(=O)N1` (centres unmarked) [thalidomide]: the “inhibition of LPS-induced TNF-α production” value in data set [1] is “about 60%”.

As usually defined, the clearance is a measure of how efficiently the substance is removed, as volume per time. Turning to `CC1(C(=O)N[C@H]2CCCCNC2=O)CCCCC1` [(III), 3-(1′-methylcyclohexylcarbonylamino)-caprolactam], the “major metabolite / route of metabolism detected in urine” value in data set [2] is “cytochrome P450-mediated hydroxylation”. Moreover, the AUC(0-inf) in data set [3] (blood, single oral dose 3 mg/kg in 1% CMC, read-out: Exposure (AUC 0->infinity) (converted)) was 48.3 ng·h/mL. The “F (%) oral bioavailability” value in data set [3] (1 mg/kg iv in 5% DMSO and 3 mg/kg oral in 1% CMC, one-compartment model) came to 5%. In addition, in data set [3] (one-compartment model), the “Vss (L/kg) volume of distribution” value was found to be 0.6 L/kg, the “clearance” value came to 55 mL/min/kg and the “t½ (mins) dominant plasma half-life” value turned out to be 11 min. Also, the “Revertant colony formation TA98 + S9” value in data set [4] (TA98 with S9, top dose 5 mg/ml) came to 0.55. Moreover, in data set [4] (TA98 without S9, top dose 5 mg/ml), the “Revertant colony formation TA98” value is on record as 0.68. In addition, in data set [4] (TA100 with S9 rat liver microsomal system, top dose 5 mg/ml), the “Revertant colony formation TA100 + S9” value came to 0.81. Also, the “Revertant colony formation TA100” value in data set [4] (TA100 without S9, top dose 5 mg/ml) is on record as 0.79. The “Revertant colony formation TA102 + S9” value in data set [4] (TA102 with S9, top dose 5 mg/ml) came to 0.88. Also, the “Revertant colony formation TA102” value in data set [4] (TA102 without S9, top dose 5 mg/ml) is 0.69. In addition, the EC50 in data set [5] (THP-1 cells, maximal dose of chemoattractant, read-out: ED50 MCP-1) amounted to 0.08 nM. Besides, the EC50 in data set [5] (THP-1 migration inhibition, Table 5, read-out: Functional ED50 versus MCP-1) came to 0.08 nM.

For `C=CCCCCCCCCC(=O)N[C@H]1CCC(=O)NC1=O` [NR58,4], the “fold less potent in vivo than 2′,2′-dimethylpropanoylamino)-tetrahydropyridin-2-one” value in data set [1] (models of acute inflammation such as LPS-induced endotoxemia) is on record as “at least 250 fold”.

For `C[C@@H]1C[C@H]2[C@@H]3CCC4=CC(=O)C=C[C@]4(C)[C@@]3(F)[C@@H](O)C[C@]2(C)[C@@]1(O)C(=O)CO` [dexamethasone], the “inhibition of LPS-induced TNF-α production” value in data set [1] is “at least 90%”.

For the origin of these results see patent US7897620B2, “Methods of using anti-inflammatory compounds” (Cambridge Enterprise Limited, priority 2007, dated 2011).
